Experimental data from patent publication US20060014740A1 (priority 2003, published 2006).
Read-outs that look alike come from different tables or passages of the source.

What was measured:
[1] = tested on: TSU-Pr1 human prostate cancer cells; test: SRB cytotoxicity assay, TSU-Pr1; assay type: cell-based; conditions: 96 h
In short: (§1)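 Plate 1000–5000 cells per well depending on growth rate; add compound (0 to 100 μM) for 96 h; fix with 10% trichloroacetic acid, wash, air-dry, stain with SRB; measure absorbance at 540 nm and express cell number relative to untreated control.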

[2] = tested on: PPC-1 human prostate cancer cells; test: SRB cytotoxicity assay, PPC-1; assay type: cell-based; conditions: 96 h, read-out: IC50 PPC-1
In short: as §1

[3] = tested on: human breast cancer cell line (MCF-7); test: SRB cytotoxicity assay, MCF-7; assay type: cell-based; conditions: Homo sapiens, MCF7; Table 8; breast cancer cell line; read-out: IC50 MCF-7
In short: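 Cells plated at 1000–5000 per well by growth rate and exposed to compound (0 to 100 μM) for 96 h, three to five replicates. Cell number read by sulforhodamine B: TCA fixation, 0.4% SRB staining, absorbance at 540 nm.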

[4] = tested on: OVCAR-3 human ovarian cancer cell line; test: SRB cytotoxicity assay, OVCAR-3; assay type: cell-based; conditions: Homo sapiens, OVCAR-3; Table 8
Description: (§2) For in vitro cytotoxicity screening, 1000 to 5000 cells were plated into each well of 96-well plates depending on growth rate, and exposed to different concentrations of a test compound for 96 h in three to five replicates. All the compounds were dissolved in dimethyl sulfoxide at 5 to 20 mM, and diluted to desired concentrations in complete culture medium. Cell numbers at the end of the drug treatment were measured by the SRB assay (Gududuru et al., “Synthesis and Biological Evaluation of Novel Cytotoxic Phospholipids for Prostate Cancer,” Bioorg. Med. Chem. Lett. 14:4919-4923 (2004); Rubinstein et at., “Comparison of in vitro Anticancer-Drug-Screening Data Generated with a Tetrazolium Assay Versus a Protein Assay Against a Diverse Panel of Human Tumor Cell Lines,” J. Naatl, Cancer Inst. 82:1113-1118 (1990), each of which is hereby incorporated by reference in its entirety). Briefly, the cells were fixed with 10% of trichloroacetic acid, stained with 0.4% SRB, and the absorbances at 540 nm was measured using a plate reader (DYNEX Technologies, Chantilly, Va.).
(§3) In vitro cytotoxicity assay was performed by the same sulforhodamine B (SRB) assay (described above). The compounds shown in Table 8 below where tested for activity against the breast cancer and ovarian cancer cell lines.

[5] = tested on: LNCaP human prostate cancer cells; test: SRB cytotoxicity assay, LNCaP; assay type: cell-based; conditions: 96 h; for IC50: read-out: IC50 LNCaP
In short: as §1

[6] = tested on: CaOv-3 human ovarian cancer cell line; test: SRB cytotoxicity assay, CaOv-3; assay type: cell-based; conditions: Homo sapiens, Caov-3; Table 8
Description: as §2, §3

[7] = tested on: RH7777 rat hepatoma cells; test: SRB cytotoxicity assay, RH7777 control cell line; assay type: cell-based; conditions: 96 h, read-out: IC50 RH7777
In short: as §1

[8] = tested on: SKOv-3 human ovarian cancer cell line; test: SRB cytotoxicity assay, SKOv-3; assay type: cell-based; conditions: Homo sapiens, SK-OV-3; Table 8
Description: as §2, §3

[9] = tested on: DU-145 human prostate cancer cells; test: SRB cytotoxicity assay, DU-145; assay type: cell-based; conditions: 96 h
In short: as §1

[10] = tested on: PC-3 human prostate cancer cells; test: SRB cytotoxicity assay, PC-3; assay type: cell-based; conditions: 96 h, read-out: IC50 PC-3
In short: as §1

[11] = tested on: CHO cells (CHO-1, CHO-K1); test: SRB cytotoxicity assay, CHO; assay type: cell-based; conditions: Table 9; negative control cell line; 96 h
Description: as §2, §3
(§4) Cells were exposed to a wide range of concentrations (0 to 100 μM) of the particular compound for 96 h in 96 well plates. Cells were fixed with 10% trichloroacetic acid, washed five times with water. The plates were air dried overnight and fixed cells were stained with SRB solution. The cellular protein-bound SRB was measured at 540 nm using a plate reader. Cell numbers at the end of the treatment were measured.
as §4, with “96-well” for “96 well”, “calculated as a percentage of untreated control.” for “measured.”

[12] = tested on: five human prostate cancer cell lines (DU-145, PC-3, LNCaP, PPC-1, TSU-Pr1); test: SRB cytotoxicity assay, statements over several cell lines; assay type: cell-based
Description: as §2
The antiproliferative activity of all the synthesized compounds was evaluated against five human prostate cancer cell lines and in RH7777 cells (negative control) using the sulforhodamine B (SRB) assay (see description in Example 5 above). […]

[13] = Homo sapiens, TSU-Pr1, Table 4, read-out: IC50 TSU-Pr1
[14] = Rattus norvegicus, RH7777, Table 4, control cell line
[15] = Homo sapiens, DU-145, read-out: IC50 DU-145, Table 4
[16] = Table 9, negative control cell line

| Compound | IC50 ([1]; Table 9, read-out: IC50 TSU) [µM] | IC50 ([10]; Table 9) [µM] | IC50 ([2]; Table 9) [µM] | IC50 ([5]; Table 9) [µM] | IC50 [11] [µM] | IC50 ([9]; read-out: IC50 DU-145, Table 9) [µM] | IC50 [7, 16] [µM] | also measured |
| --- | --- | --- | --- | --- | --- | --- | --- | --- |
| CCCCCCCCCCCCCCCCCCNC(=O)[C@@H]1CSC(c2ccc(F)cc2)N1 (mixture of isomers) [Compound 19, (2RS, 4R)-2-(4-Fluoro-phenyl)-thiazolidine-4-carboxylic acid octadecylamide] | – | – | – | – | – | – | – | IC50 [1, 13]: 5.4 µM; IC50 ([2]; Homo sapiens, PPC-1, Table 4): 2.1 µM; IC50 [3]: 8.8 µM; IC50 [4]: 2.3 µM; melting point: 65 °C; IC50 ([5]; Homo sapiens, LNCaP, Table 4): 1.9 µM; IC50 [6]: 5.5 µM; IC50 [7, 14]: 17.4 µM; IC50 [8]: 4.2 µM; IC50 [9, 15]: 5.7 µM |
| CCCCCCCCNC(=O)C(CO)NC(=O)CCCCCCC (centres unmarked) [315d] | 93.8 | 81.5 | 81.2 | > 100 | > 100 | > 100 | – | – |
| CCCCCCCCCCCCCCCCCCNC(=O)c1csc(-c2ccccc2)n1 [Compound 34, 2-phenylthiazole-4-carboxylic acid octadecylamide] | – | – | – | – | – | – | – | IC50 ([12]; both prostate and RH7777 cells, read-out: No activity below (concentration)): > 20 µM; IC50 [1, 13]: > 20 µM; IC50 ([10]; Homo sapiens, Table 4): > 20 µM; IC50 ([2]; Homo sapiens, PPC-1, Table 4): > 20 µM; IC50 [3]: > 20 µM; IC50 ([5]; Homo sapiens, LNCaP, Table 4): > 20 µM; IC50 [7, 14]: > 20 µM; IC50 [9, 15]: > 20 µM |
| CCCCCCCCC=CCCCCCCCCNC(=O)C(N)CO (centres unmarked) [compound 309] | 5.5 | 5.9 | 5.1 | 6.6 | 5.2 | 6.9 | 6.8 | – |
| CCCCCCCCCCCCCCCCCCNC[C@@H](N)CO [compound 317] | 2.2 | 2.6 | 1.9 | 5.1 | 2.2 | 4.1 | 2.9 | – |
| CCCCCCCCC=CCCCCCCCC(=O)NCCO [compound 319] | – | – | > 20 | – | > 20 | – | > 20 | Activity against DU-145, PC-3, and LNCaP prostate cancer cell lines [12]: did not show any activity; IC50 TSU ([1]; Table 9): Not; IC50 LNCaP ([5]; Table 9): Not Active |
| CCCCCCCCC=CCCCCCCCC(=O)NCCOP(=O)(O)O [compound 320] | > 50 | > 50 | – | – | > 50 | > 50 | > 50 | IC50 LNCaP ([5]; Table 9): Not Active |
